Laboratory results as given in patent EP2060564A1, “Non-peptidic promoters of apoptosis” (Ludwig-Maximilians-Universität München, priority 2007, dated 2009).
“And” between values parts separate entries of the source, which are not always exact repeats. Equal entries are not always repeated.

What was measured:
[1] = tested on: Human leukemia Jurkat T cells; assay: Quantification of apoptosis (Nicoletti, PI staining, flow cytometry) in Jurkat cells; type: cell-based; conditions: mean value and standard deviation (C.I.95), n = 3
Protocol: Cell Culture. Human leukemia Jurkat T cells (clone J16), Jurkat T-cells stably transfected with either empty vector (Jurkat vector, pBabe Jurkat) or XIAP (Jurkat-XIAP) as well as the BIR-3 domain only (BIR-3-sp-RING-Jurkat) (kindly provided by Dr. Colin Duckett at the University of Michigan) were cultured (37°C and 5% CO2 in RPMI 1640 containing 2 mM L-glutamine (PAN Biotech, Aidenbach, Germany) supplemented with 10% FCS gold (PAA Laboratories, Cölbe, Germany) and 1% Pyruvat (Sigma Deisenhofen, Germany).
(§1) Detection an Quantification of Apoptosis. Quantification of apoptosis was performed according to Nicoletti et al. (J Immunol. Methods (1991) 139, 271-279). Briefly, cells were incubated for 24 h in a hypotonic buffer (0.1% sodium citrate, 0.1% Triton-X-100 and 50 µg/ml PI) and analyzed by flow cytometry on a FACSCalibur (Becton Dickinson, Heidelberg, Germany). Nuclei to the left of the G1-peak containing hypodiploid DNA were considered apoptotic.
Compounds were first tested for their apoptotic potential in Jurkat cells alone as well as in combination with sub-optimal concentrations of etoposide. […] Similar results were obtained for compound II-1 (55.8% apoptotic cells). Table 1: Percentage of apoptotic Jurkat cells measured after application of medium control, 0.75 µM etoposide, 25 µM test substance, and a mixture of 0.75 µM etoposide and 25 µM test substance, respectively.a

XIAP = target: T1, XIAP (Homo sapiens, UniProt P98170); assay: Western Blot analysis of XIAP protein level; type: cell-based; conditions: 25µM compound alone as well as in combination with 500nM etoposide; 16 and 24 h (Figure 5)
T1 construct: endogenous in cells
Protocol: Figure 5: XIAP protein level is reduced by compound I-1. Cells were left untreated (CO) or treated with 25µM of compound I-1, 500nM etoposide or with combination of both for the indicated time periods. XIAP protein level was detected by Western Blot analysis. Ponceau S was used as loading control. A representative experiment out of three independent experiments is shown.
(§2) Western Blot Analysis. Cells were collected by centrifugation, washed with ice-cold PBS and lysed in 1% Triton X-100, 0.15 M NaCl and 30 mM Tris-HCl pH 7.5 with the protease inhibitor complete™ (Roche, Mannheim, Germany) for 30 min. Lysates were centrifuge at 10,000xg for 10 min at 4°C. Equal amounts of protein were separated by SDS-PAGE (12% for XIAP) transferred to polyvinylidene difluoride membranes (Immobilon-P™, Millipore, Eschborn, Germany). Equal protein loading was controlled by coomassie staining of gels. Membranes were blocked with 5% fat-free milk powder in PBS containing 0.05% Tween-20 (1 h) and incubated with specific antibodies against XIAP (mouse antibody IgG1, clone 28, BD Transduction Laboratories, Heidelberg, Germany) overnight at 4°C. Specific proteins were visualized by secondary antibodies conjugated to horseradish peroxidase and the ECL Plus™ Western Blotting detection reagent (Amersham Biosciences, Freiburg, Germany). […]

[2] = tested on: Jurkat cells overexpressing full-length XIAP or BIR-3/Ring; assay: Quantification of apoptosis in Jurkat cell lines overexpressing XIAP or BIR-3/Ring; type: cell-based, Human; conditions: wild type Jurkat cells and Jurkat cells overexpressing full-length XIAP or BIR-3/Ring; with low dose of etoposide (Figure 1)
Protocol: Figure 1: Compound I-1 sensitizes different Jurkat cell lines towards etoposide-induced apoptosis. Compound I-1 was tested in wildtype human leukemia Jurkat T cells (A), as well as in Jurkat cells stably transfected with empty vector (B), full-length XIAP overexpressing Jurkat cells (C) or the […] domain overexpressing Jurkat cells (D). Cell death was evaluated as described under "Materials and Methods". Bars, the mean ± SE of three independent experiments performed in triplicate. *** P<0.001 (Anova/Bonferroni), n.s., not significant.
Cell Culture. […]
as §1, with “Nuclei to the left of the G1-peak containing hypodiploid DNA were considered apoptotic.” left out

caspase-9 = assay: Caspase-9 activity assay (Ac-LEHD-AFC substrate); type: cell-based, Human; conditions: 25µM compound with 500nM etoposide, wild type Jurkat cells (Figure 3)
Protocol: (§3) Figure 2: Compound I-1 sensitizes to a reduction of etoposide-induced clonogenic survival. Wild type Jurkat cells were left untreated (A) or treated for 1h with 25µM of compound I-1 (B), 500nM etoposide (C) or a combination of both (D). After replacement into fresh methylcellulose medium, cells were incubated for 7 days. Afterwards colony number was counted (E). Bars, the mean ± SE of three independent experiments. *** P<0.001 (Anova/Bonferroni). Figure 3: Compound I-1 increases initiator caspase activities. Wild type Jurkat cells were left untreated or treated with 25µM of compound I-1, 500nM etoposide or a combination of both for the indicated time periods. Fluorescence measurements were performed for caspase-9 (A) and caspase-3 (B). Protein concentration was used for normalization. Bars, the mean ± SE of three independent experiments performed in triplicate. *** P<0.001 (Anova/Bonferroni).
(§4) Caspase-9/3 activity assay. Caspase-9/3 activity was measured using caspase-9(Ac-LEHD-AFC) or caspase 3(Ac-DEVD-AFC) substrates (both from Bachem AG, Bubendorf, Germany). […] The reading was performed in a plate-reading multifunction photometer (SPECTRAFLUOR PLUS, Tecan, Crailsheim, Germany). The activity was calculated from the difference between fluorescence in the 0 point and after 1h (for caspase-3) or after 3h (for caspase-9). […]

[3] = tested on: caspase-9, caspase-3 and PARP; assay: Western Blot analysis of caspase-9, caspase-3 and PARP cleavage; type: cell-based, Human; conditions: 25µM compound with 500nM etoposide, wild type Jurkat cells, time dependent (Figure 4)
Protocol: Figure 4: Compound I-1 activates initiator caspases and induces PARP cleavage. Wild type Jurkat cells were left untreated or treated with 25µM of compound I-1, 500nM etoposide or a combination of both for the indicated time periods. Expression of caspase-9, caspase-3 and PARP was assessed by Western Blot analysis. Cleavage products are indicated by arrows. Ponceau S was used as loading control. A representative experiment out of three independent experiments is shown.
as §2, with “4°C.” for “4°C. Specific proteins were visualized by secondary antibodies conjugated to horseradish peroxidase and the ECL Plus™ Western Blotting detection reagent (Amersham Biosciences, Freiburg, Germany).”

caspase-3 = assay: Caspase-3 activity assay (Ac-DEVD-AFC substrate); type: cell-based, Human; conditions: 25µM compound with 500nM etoposide, wild type Jurkat cells (Figure 3)
Protocol: as §3, §4

Wildtype Jurkat cells = assay: Clonogenic assay; type: cell-based, Human; conditions: 1h with 25µM compound and 500nM etoposide; colonies scored after 7 days (Figure 2)
Protocol: as §3
Clonogenic assay. Wildtype Jurkat cells were left untreated or treated for 1h with 25µM test compound, 500nM etoposide or a combination of both. Subsequently, cells were washed with PBS and resuspended in culture medium (5x10^5 cells/ml). Cell suspensions were diluted 1:10 with methylcellulose (0.52%) medium containing 40% FCS. Cells were seeded in 96-well plates (100 µl) and colonies were scored after 7 days of culture.

[4] = Etoposide 0.75µM and Substance 25µM

T1 sequence (P98170 whole entry): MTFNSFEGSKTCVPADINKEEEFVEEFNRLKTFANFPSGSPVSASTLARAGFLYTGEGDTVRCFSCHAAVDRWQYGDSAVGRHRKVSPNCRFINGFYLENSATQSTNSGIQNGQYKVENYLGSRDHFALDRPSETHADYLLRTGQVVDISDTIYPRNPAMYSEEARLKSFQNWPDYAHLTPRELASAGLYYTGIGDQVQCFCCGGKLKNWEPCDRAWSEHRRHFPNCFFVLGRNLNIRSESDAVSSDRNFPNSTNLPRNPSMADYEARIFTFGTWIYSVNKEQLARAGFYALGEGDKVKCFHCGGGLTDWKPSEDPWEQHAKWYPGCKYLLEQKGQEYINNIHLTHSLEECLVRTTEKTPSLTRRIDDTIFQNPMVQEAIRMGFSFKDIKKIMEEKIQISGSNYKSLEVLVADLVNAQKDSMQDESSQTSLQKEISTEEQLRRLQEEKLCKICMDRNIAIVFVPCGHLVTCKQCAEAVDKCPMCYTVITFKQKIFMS

Row | caspase-9 activity induced by etoposide (caspase-9) | caspase-3 activity induced by etoposide (caspase-3) | SMILES | Percentage of apoptotic Jurkat cells [1, 4] | Percentage of apoptotic Jurkat cells ([1]; Substance 25µM alone) [%] | Percentage of apoptotic Jurkat cells ([1]; Etoposide 0.75µM alone) | XIAP protein level (XIAP) | apoptosis induced by subtoxic concentrations of etoposide [2] | cleavage of caspase-9 and -3 proforms as well as PARP induced by etoposide [3] | clonogenic survival of etoposide treated Jurkat cells (Wildtype Jurkat cells)
1 |  |  | NNC(=O)CNC(c1ccccc1)c1cc(Br)ccc1NC(=O)c1ccccc1Br (centres unmarked) [II-1] | 55.8% and 55.82±12.23% | 10.69±1.25 |  |  |  |  | 
2 |  |  | COc1cc([C@@H]2c3cc4c(cc3[C@@H](O[C@@H]3O[C@@H]5CO[C@@H](C)O[C@H]5[C@H](O)[C@H]3O)[C@H]3COC(=O)[C@H]23)OCO4)cc(OC)c1O [Etoposide, reference compound] |  |  | 30.66±9.89% and 31.31±2.74% |  |  |  | 
3 | significantly increased | significantly increased | CCc1cccc(CC)c1NC(=O)CN1CCC(NC(=O)c2cccc(F)c2)CC1 [Compound I-1] | 65.7% and 65.74±6.0% | 13.16±2.28 |  | able to reduce XIAP protein after 16 and 24 h | potentiates apoptosis induced by subtoxic concentrations of etoposide | strong impact of compound I-1 on cleavage of caspase-9 and -3 proforms as well as PARP | sensitizes for reduction of clonogenic survival of etoposide treated Jurkat cells
